Among the test systems are SNB-75; UACC-257; Malme-3M; CCRF-CEM; HL-60; HOP-92; HT-29; SR; OVCAR-5; SK-MEL-2; SW-620; MOLT-4; NCI-H522; MDA-MB-435; SN12C; T47D; SNB-19; UO-31; OVCAR-8; NCI-H23.
What all share (test): inhibition of tumour cell growth, NCI panel, 48 h

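Briefly, cells in 96-well plates were exposed to five compound concentrations for 48 h, and endpoints were estimated by linear interpolation. GI50 marks 50% less growth.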 Active and inactive are the calls of the source. Cut-off read from the data, not from the text of the source: active = GI50 up to about 1.1 µM and inactive = higher. Bounds are passed on as bounds.

Regarding `NNC(=S)N/N=C(\C(=O)Nc1cccc(O)c1)C1C(=O)NC(=S)NC1=O`, the GI50 in the assay on SNB-75, with UACC-257, with Malme-3M, in the assay with CCRF-CEM, in the assay on HL-60 and in the assay on HOP-92 was > 100 µM (inactive) in each case. The GI50 in the assay on HT-29, in the assay with SR, in the assay with OVCAR-5, in the assay with SK-MEL-2, in the assay on SW-620 and in the assay on MOLT-4 was > 100 µM (inactive) in each case. The GI50 in the assay on NCI-H522, in the assay on MDA-MB-435, in the assay with SN12C, in the assay on T47D, with SNB-19 and in the assay with UO-31 was > 100 µM (inactive) each time. In addition, the GI50 in the assay with OVCAR-8 was > 100 µM (inactive).

Consider `CC1=C(C(=O)NC2CCCCC2)CC(C(=O)NC2CCCCC2)=C(C)N1`, for which the GI50 was 13.7 µM (inactive) in the assay with SNB-75; > 100 µM (inactive) in the assay with UACC-257; > 100 µM (inactive) with Malme-3M; > 100 µM (inactive) in the assay on CCRF-CEM; 71.6 µM (inactive) in the assay with HL-60; 33 µM (inactive) in the assay with HOP-92. The GI50 in the assay on SR, in the assay with OVCAR-5, in the assay with SK-MEL-2, with NCI-H23, in the assay on SW-620 and in the assay with MOLT-4 was > 100 µM (inactive) each time. Further, the GI50 in the assay with NCI-H522 was > 100 µM (inactive); with MDA-MB-435, > 100 µM (inactive); in the assay with SN12C, > 100 µM (inactive); in the assay with T47D it was 58.6 µM (inactive); in the assay with SNB-19, > 100 µM (inactive); in the assay with UO-31, > 100 µM (inactive).

With `COc1ccc(NC(=O)C(C#N)=C(SC)SC)cc1`, the GI50 in the assay on UACC-257 was > 100 µM (inactive); in the assay on Malme-3M, > 100 µM (inactive); with CCRF-CEM, > 100 µM (inactive); with HL-60 it was 75.3 µM (inactive); in the assay with HOP-92, 15.8 µM (inactive); with HT-29, > 100 µM (inactive). Moreover, the GI50 in the assay with SR, with OVCAR-5, in the assay with SK-MEL-2, in the assay on NCI-H23, in the assay on SW-620 and in the assay with MOLT-4 was > 100 µM (inactive) in each case. The GI50 with NCI-H522 is 57.1 µM (inactive); with MDA-MB-435 it was > 100 µM (inactive); with SN12C it was > 100 µM (inactive); in the assay on T47D, > 100 µM (inactive); in the assay with SNB-19, > 100 µM (inactive); in the assay with UO-31, 60.3 µM (inactive).

Take `O=C(c1ccccc1)c1c(-c2ccccc2)[nH]n(-c2ccc([N+](=O)[O-])cc2)c(=O)c1=O`: the GI50 in the assay with UACC-257 was 41.5 µM (inactive); in the assay with Malme-3M it was > 100 µM (inactive); in the assay with CCRF-CEM, 47 µM (inactive); in the assay on HL-60 it was > 100 µM (inactive); in the assay on HOP-92, 16.8 µM (inactive); with HT-29, 36.6 µM (inactive). The GI50 is 35.5 µM (inactive) in the assay with SR; > 100 µM (inactive) with OVCAR-5; 21.1 µM (inactive) in the assay with SK-MEL-2; 0.2 µM (active) in the assay on NCI-H23; 42.6 µM (inactive) in the assay on SW-620; 37.2 µM (inactive) in the assay on MOLT-4. Besides, the GI50 in the assay with NCI-H522 is 23.4 µM (inactive); in the assay with MDA-MB-435, 75.2 µM (inactive); with SN12C it was 57.3 µM (inactive); in the assay on T47D, 81.8 µM (inactive); in the assay on SNB-19 it was 6.47 µM (inactive); in the assay with UO-31, 32.1 µM (inactive). Moreover, in the assay with OVCAR-8, the GI50 is 31.1 µM (inactive).

Turning to `CC(C)[Si]1(C(C)C)OCC2OC(n3ccc(=O)[nH]c3=O)C(O)(CO)C2O[Si](C(C)C)(C(C)C)O1` (centres undefined), the GI50 in the assay with UACC-257 is 15.3 µM (inactive); with Malme-3M, 15 µM (inactive); with CCRF-CEM, 12.4 µM (inactive); in the assay with HL-60, 14.4 µM (inactive); in the assay with HOP-92, 10.5 µM (inactive); with HT-29, 15 µM (inactive). The GI50 is 12.9 µM (inactive) with SR; 15.9 µM (inactive) in the assay on OVCAR-5; 16.7 µM (inactive) in the assay with SK-MEL-2; 3.62 µM (inactive) in the assay with NCI-H23; 17.1 µM (inactive) with SW-620; 12.3 µM (inactive) in the assay with MOLT-4. The GI50 in the assay on MDA-MB-435 is 17 µM (inactive); in the assay with SN12C, 15.8 µM (inactive); in the assay with T47D, 15.1 µM (inactive); in the assay with SNB-19 it was 15.3 µM (inactive); in the assay on UO-31, 10.2 µM (inactive); in the assay with OVCAR-8 it was 15.5 µM (inactive).

In the case of `O=C(O[C@H](/C=C/c1ccccc1)P1(=O)N(Cc2ccccc2)[C@H]2CCCC[C@@H]2N1Cc1ccccc1)c1ccccc1`, the GI50 with UACC-257 is 9.84 µM (inactive); in the assay on Malme-3M, 2.89 µM (inactive); in the assay with CCRF-CEM, 3.48 µM (inactive); in the assay on HL-60, 2.95 µM (inactive); in the assay with HOP-92, 1.99 µM (inactive); in the assay on HT-29 it was 3.8 µM (inactive). Besides, the GI50 is 3.35 µM (inactive) in the assay with SR; 4.94 µM (inactive) in the assay with OVCAR-5; 2.39 µM (inactive) in the assay on SK-MEL-2; 3.51 µM (inactive) with NCI-H23; 3.72 µM (inactive) with SW-620; 3.48 µM (inactive) with NCI-H522. Also, the GI50 was 3.05 µM (inactive) in the assay with MDA-MB-435; 3.15 µM (inactive) in the assay with SN12C; 0.877 µM (active) with T47D; 5.31 µM (inactive) in the assay with SNB-19; 4.61 µM (inactive) in the assay with UO-31; 3.69 µM (inactive) in the assay with OVCAR-8.

In the case of `O=C(O)c1cccc(C(=O)O)c1[S+]([O-])Cc1ccccc1` (centres undefined), the GI50 in the assay with SNB-75, in the assay with UACC-257, in the assay on Malme-3M, in the assay on HL-60, in the assay with HOP-92 and with HT-29 was > 100 µM (inactive) in each case. Further, the GI50 in the assay with SR, in the assay on OVCAR-5, with SK-MEL-2, with NCI-H23, with SW-620 and in the assay with NCI-H522 was > 100 µM (inactive) in each case. In addition, the GI50 in the assay on MDA-MB-435, in the assay on SN12C, in the assay with T47D, in the assay with SNB-19, in the assay with UO-31 and in the assay with OVCAR-8 was > 100 µM (inactive) throughout.

Regarding `N#CC(C#N)=C1C(C#N)=C(N)NC12OCCO2`, the GI50 with UACC-257, with Malme-3M, with CCRF-CEM, in the assay with HL-60, in the assay with HOP-92 and in the assay with HT-29 was > 100 µM (inactive) throughout. The GI50 in the assay with SR, with OVCAR-5, in the assay with SK-MEL-2, in the assay on NCI-H23, in the assay on SW-620 and in the assay on MOLT-4 was > 100 µM (inactive) in each case. Further, the GI50 in the assay on NCI-H522, in the assay with MDA-MB-435, in the assay on SN12C, in the assay on T47D, in the assay with SNB-19 and in the assay on UO-31 was > 100 µM (inactive) in each case. Also, in the assay on OVCAR-8, the GI50 was > 100 µM (inactive).

As for `CC12Nc3c(Cl)cc(Cl)cc3N1C(=O)c1ccccc12` (centres undefined), the GI50 in the assay on SNB-75 was > 100 µM (inactive); in the assay on UACC-257, > 100 µM (inactive); in the assay with Malme-3M, > 100 µM (inactive); with CCRF-CEM it was > 100 µM (inactive); in the assay with HL-60 it was 51.6 µM (inactive); with HOP-92, 17.9 µM (inactive). Moreover, the GI50 was > 100 µM (inactive) with HT-29; 63.8 µM (inactive) in the assay with SR; > 100 µM (inactive) with OVCAR-5; > 100 µM (inactive) in the assay with SK-MEL-2; > 100 µM (inactive) with NCI-H23; > 100 µM (inactive) with SW-620. In addition, the GI50 in the assay on MOLT-4 is 58.7 µM (inactive); in the assay on NCI-H522 it was 97.1 µM (inactive); with MDA-MB-435, > 100 µM (inactive); with SN12C, > 100 µM (inactive); with T47D it was > 100 µM (inactive); with UO-31, 52.7 µM (inactive). Moreover, in the assay with OVCAR-8, the GI50 was > 100 µM (inactive).

`CN(C)Cc1cc(C(=O)/C=C/c2ccc(F)cc2)cc(CN(C)C)c1O`: the GI50 in the assay with SNB-75 was 22.9 µM (inactive); in the assay with UACC-257 it was 13.4 µM (inactive); in the assay with Malme-3M, 17.7 µM (inactive); in the assay with CCRF-CEM, 17 µM (inactive); in the assay on HL-60, 11.5 µM (inactive); with HOP-92 it was 29.2 µM (inactive). In addition, the GI50 with HT-29 was 23 µM (inactive); in the assay with SR it was 20.6 µM (inactive); in the assay with OVCAR-5 it was 57.7 µM (inactive); in the assay with NCI-H23, 34.4 µM (inactive); in the assay on SW-620, 20.4 µM (inactive); in the assay on MOLT-4, 19.5 µM (inactive). Moreover, the GI50 with NCI-H522 is 15.2 µM (inactive); with MDA-MB-435 it was 16.3 µM (inactive); in the assay with SN12C it was 18.4 µM (inactive); with T47D, 18 µM (inactive); in the assay with SNB-19 it was 25.4 µM (inactive); in the assay on UO-31, 13.4 µM (inactive). In addition, the GI50 in the assay with OVCAR-8 is 21.4 µM (inactive).

On to `Oc1cc(Cl)cc2cc(Br)cnc12`, for which the GI50 with SNB-75 was 13.6 µM (inactive); in the assay on UACC-257 it was 2.63 µM (inactive); in the assay with Malme-3M, 2.23 µM (inactive); in the assay on CCRF-CEM, 1.9 µM (inactive); in the assay with HL-60, 0.258 µM (active); with HOP-92, 4.69 µM (inactive). In addition, the GI50 was 11.3 µM (inactive) in the assay with HT-29; 1.42 µM (inactive) in the assay with SR; 8.95 µM (inactive) in the assay with OVCAR-5; 4.39 µM (inactive) in the assay with NCI-H23; 3.96 µM (inactive) with SW-620; 2.04 µM (inactive) with MOLT-4. In addition, the GI50 in the assay on NCI-H522 is 2.74 µM (inactive); with MDA-MB-435, 4.65 µM (inactive); in the assay on SN12C it was 2.23 µM (inactive); in the assay on T47D, 7.28 µM (inactive); in the assay with SNB-19, 4.1 µM (inactive); in the assay with UO-31, 3.94 µM (inactive). For the same molecule, in the assay with OVCAR-8, the GI50 is 2.3 µM (inactive).

Source of the values: ChEMBL document CHEMBL1201862, “PubChem BioAssay data set” (2004).
